Series [1] addresses T1, COX-1 (Homo sapiens, UniProt P23219).
T1 construct: host or cells: U-937 human lymphoma cells
Briefly: Assay for the COX-1 inhibitory activity using U-937 (PGE2 inhibition). It counts as cell-based. The note with it: 1 μM test compound; U-937 human lymphoma cells; arachidonic acid substrate; PGE2 vs DMSO control; read-out: Cyclooxygenase (COX) Inhibition (%) COX-1 (1 μM). The procedure:
The collected cells were diluted with HBSS (×1, Hank's balanced salt solution) to a concentration of 1×10^6 cells/ml. 1 ml of the dilute cell solution was placed into each well of 12-well plates. 5 μl of 1 μM solution of a test compound in DMSO and 5 μl of DMSO as a control were added to the wells. The wells were incubated in CO2 incubator at 37° C. for 15 minutes. Separately, 10 mM stock solution of arachidonic acid in ethanol was diluted ten times in ethanol to prepare 1 mM solution of arachidonic acid. Arachidonic acid acts as a substrate. 10 μl of the 1 mM solution of arachidonic acid was added to each well and incubated at CO2 incubator at 37° C. for 30 minutes. The cell solution of each well was placed in a centrifuge test tube and centrifuged at 10,000 rpm at 4° C. for 5 minutes. The concentration of PGE2 in the collected cells and the supernatant was quantified by means of a monoclonal kit (Cayman Chemicals). The percentages of PGE2 inhibition in a group of the test compound-treated cells in relation to a group of the DMSO-treated cells were calculated. Based on the calculated values, the COX-1 inhibitory activities were evaluated.
(§1) The percentages of the COX inhibition were calculated according to the following equation: [formula]

The target of series [2] is T2, COX-2 (Mus musculus, UniProt Q05769).
T2 construct: host or cells: RAW 264.7 cells, pre-treated with aspirin and induced with interferon and LPS
T2 sequence (Q05769 18-604): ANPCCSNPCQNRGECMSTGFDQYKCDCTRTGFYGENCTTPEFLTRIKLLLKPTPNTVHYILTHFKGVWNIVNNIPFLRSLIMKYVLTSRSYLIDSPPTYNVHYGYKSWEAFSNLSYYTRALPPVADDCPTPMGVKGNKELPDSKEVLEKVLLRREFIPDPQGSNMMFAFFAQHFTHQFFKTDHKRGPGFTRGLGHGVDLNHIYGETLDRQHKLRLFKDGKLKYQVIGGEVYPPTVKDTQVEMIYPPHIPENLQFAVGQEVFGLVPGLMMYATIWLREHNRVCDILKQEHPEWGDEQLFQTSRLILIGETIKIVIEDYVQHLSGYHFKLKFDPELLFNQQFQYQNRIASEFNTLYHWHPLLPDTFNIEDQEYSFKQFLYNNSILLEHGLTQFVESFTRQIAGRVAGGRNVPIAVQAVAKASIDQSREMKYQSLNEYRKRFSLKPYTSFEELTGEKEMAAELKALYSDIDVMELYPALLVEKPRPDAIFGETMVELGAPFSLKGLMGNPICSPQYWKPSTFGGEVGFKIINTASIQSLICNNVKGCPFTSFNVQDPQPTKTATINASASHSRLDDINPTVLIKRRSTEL
Briefly: Assay for the COX-2 inhibitory activity using RAW 264.7 cell line (PGE2, EIA). It counts as cell-based. The following applies: RAW264.7, 10 nM test compound, RAW 264.7 cells, aspirin pre-treated, interferon + LPS 18 hours, read-out: Cyclooxygenase (COX) Inhibition (%) COX-2 (10 nM). The procedure:
Each well was treated with 250 μM of aspirin and incubated at 37° C. for 2 hours. After the culture media were replaced with new culture media, the new culture media were treated with a test compound (10 nM) and incubated for 30 minutes. Then, each well was treated with interferon ? (100 units/ml) and lipopolysaccharide (LPS, 100 ng/ml) and incubated for 18 hours. The culture media were transferred to other test tubes. The concentration of PGE2 was quantified by means of the EIA kit (Cayman Chemicals).
as §1

SMILES strings stand for the structures.

T1 sequence (P23219 24-599): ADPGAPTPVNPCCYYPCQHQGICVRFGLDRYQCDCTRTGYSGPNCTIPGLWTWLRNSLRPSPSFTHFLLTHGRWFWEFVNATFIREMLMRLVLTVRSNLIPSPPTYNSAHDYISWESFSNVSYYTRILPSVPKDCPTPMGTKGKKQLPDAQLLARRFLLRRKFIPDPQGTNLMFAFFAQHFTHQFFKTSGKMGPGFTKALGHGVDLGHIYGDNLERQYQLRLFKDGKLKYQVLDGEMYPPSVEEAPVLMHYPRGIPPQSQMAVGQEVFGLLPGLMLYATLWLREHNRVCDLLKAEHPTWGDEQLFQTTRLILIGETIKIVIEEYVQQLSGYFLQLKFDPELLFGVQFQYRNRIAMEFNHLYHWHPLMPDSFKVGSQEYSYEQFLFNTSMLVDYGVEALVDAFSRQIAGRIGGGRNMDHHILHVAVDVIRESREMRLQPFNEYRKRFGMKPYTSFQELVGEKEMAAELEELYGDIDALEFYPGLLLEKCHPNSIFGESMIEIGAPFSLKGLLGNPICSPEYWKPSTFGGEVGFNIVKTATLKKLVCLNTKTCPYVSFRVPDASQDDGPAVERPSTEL

As for `NS(=O)(=O)c1ccc(-n2c(-c3ccccc3)csc2=S)cc1` [Example 1, 4-(4-phenyl-2-thioxothiazole-3-yl)benzenesulfonamide], the melting point came out at 235 °C. For the same compound, the inhibition at 1 µM in series [1] was 28.5%. The inhibition at 0.01 µM in series [2] was 60.9%.
The corresponding values for `Cc1sc(=S)n(-c2ccc(S(N)(=O)=O)cc2)c1-c1ccccc1` [Example 2, 4-(5-methyl-4-phenyl-2-thioxothiazole-3-yl)benzenesulfonamide] are 262 °C, 35.2% and 66.5%.
For `CS(=O)(=O)c1ccc(-c2csc(=S)n2-c2ccc(S(N)(=O)=O)cc2)cc1` [Example 3, 4-[4-(4-methanesulfonylphenyl)-2-thioxothiazole-3-yl]benzenesulfo namide] the same measures were 288 °C, 30.7% and 65.8%.
The corresponding values for `NS(=O)(=O)c1ccc(-n2c(-c3ccc(F)cc3)csc2=S)cc1` [Example 4, 4-[4-(4-fluorophenyl)-2-thioxothiazole-3-yl]benzenesulfonamide] are 271 °C, 31.1% and 72.7%.
In turn, `NS(=O)(=O)c1ccc(-n2c(-c3cccc([N+](=O)[O-])c3)csc2=S)cc1` [Example 5, 4-[4-(3-nitrophenyl)-2-thioxothiazole-3-yl]benzenesulfonamide] displayed a melting point of 284 °C. Further, the inhibition at 1 µM in series [1] came out at 15.8%. In addition, in series [2], the inhibition at 0.01 µM was found to be 75%.
On to `NS(=O)(=O)c1ccc(-n2c(-c3ccc(Cl)cc3)csc2=S)cc1` [Example 6, 4-[4-(4-chlorophenyl)-2-thioxothiazole-3-yl]benzenesulfonamide], for which the melting point worked out at 242 °C. The inhibition at 1 µM in series [1] is 38.5%. In addition, in series [2], the inhibition at 0.01 µM was determined as 73.5%.
Consider `Cc1onc(-c2ccccc2)c1-c1ccc(S(N)(=O)=O)cc1` [Reference (Valdecoxib), Valdecoxib, reference compound], for which, in series [1], the inhibition at 1 µM was 29.5%.

The inhibition is the share of the control response that was lost under treatment. What is called melting point is the temperature of the solid-liquid transition.
